Test results from ChEMBL document CHEMBL3856192, “Aroylhydrazone iron chelators: Tuning antioxidant and antiproliferative properties by hydrazide modifications” (Eur J Med Chem, 2016).

How the values were obtained:
[1] = Cytotoxicity against rat H9c2 cells assessed as decrease in cell viability after 72 hrs by neutral red staining based assay; type: toxicity
[2] = Stability in rabbit plasma assessed as parent compound remaining at 100 uM after 10 hrs by HPLC analysis; type: ADME, cell-free, Oryctolagus cuniculus; details: read-out: Stability
H9c2 [3] = experiment: Protection against t-BHP-induced oxidative injury in rat H9c2 cells assessed as increase in cell viability incubated for 10 mins followed by stimulation with t-BHP for 24 hrs by neutral red staining based assay; type: functional
[4] = Drug uptake in human SK-N-MC cells by beta scintillation counting analysis; type: ADME, cell-based
H9c2 [5] = experiment: Selectivity index, ratio of IC50 for rat H9c2 cells to IC50 for human HL60 cells; type: functional
MCF7 [6] = experiment: Induction of transferrin labeled 59Fe mobilization in human MCF7 cells assessed as cellular 59Fe released at 25 uM after 3 hrs by gamma scintillation counting analysis (reference value: 11%); type: functional
[7] = Cytotoxicity against human MCF7 cells assessed as decrease in cell viability after 72 hrs by neutral red staining based assay; type: functional; details: MCF7, 72 h
MCF7 [8] = experiment: Inhibition of 59Fe uptake in human MCF7 cells labeled with 59Fe transferrin at 25 uM after 3 hrs relative to control; type: functional; details: MCF7, 3 h
[9] = Cytotoxicity against human HL60 cells assessed as decrease in cell viability after 72 hrs by MTT assay; type: functional, cell-based; details: HL-60, 72 h
[10] = Iron chelating activity assessed as Fe2+-compound complex formation at 5 uM measured for 360 secs by calcein based fluorescence assay relative to salicylaldehyde isonicotinoyl hydrazone; type: physicochemical; details: 0.1 h
H9c2 [11] = experiment: Selectivity index, ratio of IC50 for rat H9c2 cells to IC50 for human MCF7 cells; type: functional
SK-N-MC = experiment: Selectivity index, ratio of IC50 for HUVEC to IC50 for human SK-N-MC cells
[12] = Antiproliferative activity against HUVEC after 22 to 72 hrs by MTT assay; type: cell-based; details: Homo sapiens
[13] = Antiproliferative activity against human SK-N-MC cells after 22 to 72 hrs by MTT assay; type: functional, cell-based
[14] = Selectivity index, ratio of IC50 for rat L8 cells to IC50 for human SK-N-MC cells; type: functional
[15] = Antiproliferative activity against rat L8 cells after 22 to 72 hrs by MTT assay; type: cell-based
[16] = Iron chelating activity assessed as Fe3+-compound complex-induced antioxidant activity by measuring ascorbate oxidation level at iron binding equivalent of 3 measured after 10 to 40 mins in presence of 500 uM of citrate relative to control; type: physicochemical
H9c2 [17] = experiment: Protection against H202-induced oxidative injury in rat H9c2 cells assessed as increase in cell viability after 24 hrs by neutral red staining based assay; type: functional; details: H9c2, 24 h
[18] = Iron chelating activity assessed as Fe3+-compound complex-induced antioxidant activity by measuring decrease in ascorbate oxidation level at iron binding equivalent of 3 measured after 10 to 40 mins in presence of 100 uM of citrate relative to control; type: physicochemical
H9c2 [19] = experiment: Selectivity index, ratio of IC50 for rat H9c2 cells to EC50 for rat H9c2 cells; type: functional
[20] = Iron chelating activity assessed as Fe3+-compound complex-induced antioxidant activity by measuring ascorbate oxidation level at iron binding equivalent of 0.1 measured after 10 to 40 mins in presence of 500 uM of citrate relative to control; type: physicochemical

| remaining at 10 h, 100 µM [2] [%] | Activity [10] [%] | Activity [16] [%] | Compound | IC50 at 72 h [1] [µM] | Ratio IC50 (H9c2 [5]) | Activity (MCF7 [6]) | IC50 [7] [µM] | inhibition at 25 µM (MCF7 [8]) [%] | IC50 [9] [µM] | Ratio IC50 (H9c2 [11]) | also measured |
| --- | --- | --- | --- | --- | --- | --- | --- | --- | --- | --- | --- |
| 26 |  |  | C/C(=N\NC(=O)c1ccncc1)c1ccccc1O | 12.6 |  |  |  |  |  |  | EC50 (H9c2 [3]): 11.4 µM |
| 76 | 84 to 109 |  | CC/C(=N\NC(=O)c1cccc2ccccc12)c1ccccc1O | > 200 | >57 | 50 - 56% | 3.5 | 17 to 61 | 3.5 | >57 |  |
|  | 84 to 109 | 10 to 44 | CC/C(=N\NC(=O)c1cccnc1)c1ccccc1O | 7.1 | 1.5 | 50 - 56% | 5 | 17 to 61 | 4.9 | 1.4 | EC50 (H9c2 [17]): 30 µM |
|  | 97 to 107 | 10 to 44 | C/C(=N\NC(=O)c1cccnc1)c1ccccc1O | 6.8 | 0.9 | 54 - 57% | 8.3 | 17 to 61 | 7.5 | 0.8 |  |
| 41 | 84 to 109 |  | CC/C(=N\NC(=O)c1ccc(-c2ccccc2)cc1)c1ccccc1O | > 100 | >78 | 51% | 1.3 | 17 to 61 | 1.3 | >78 |  |
| 90 | 7 |  | C/C(=N\NC(=O)c1ccc(-c2ccccc2)cc1)c1ccccc1O | > 100 | >37 | 41% | 4.6 | 17 to 61 | 2.7 | >22 |  |
| 41 |  |  | CC/C(=N\NC(=O)c1ccncc1)c1ccccc1O |  |  |  | 34.7 |  |  |  | EC50 (H9c2 [3]): 17.8 µM |
|  |  | 16 | CC(=O)N(O)CCCCCNC(=O)CCC(=O)N(O)CCCCCNC(=O)CCC(=O)N(O)CCCCCN [DEFEROXAMINE] |  |  |  |  |  |  |  | Activity [20]: 93% |

Second part, the compound before the results:

| Compound | remaining at 10 h, 100 µM [2] [%] | Activity [10] [%] | Activity [16] [%] | IC50 at 72 h [1] [µM] | Ratio IC50 (H9c2 [5]) | Activity (MCF7 [6]) | IC50 [7] [µM] | inhibition at 25 µM (MCF7 [8]) [%] | IC50 [9] [µM] | Ratio IC50 (H9c2 [11]) | also measured |
| --- | --- | --- | --- | --- | --- | --- | --- | --- | --- | --- | --- |
| CN(C)C(=S)NN=[14C](c1ccccn1)c1ccccn1 |  |  |  |  |  |  |  |  |  |  | Kd [4]: 2.45 µM |
| O=C(N/N=C/c1c(O)ccc2ccccc12)c1ccncc1 |  |  |  |  |  |  |  |  |  |  | Ratio IC50 (SK-N-MC): 40; IC50 [12]: 20.1 µM; IC50 [13]: 0.5 µM; Ratio IC50 [14]: 11; IC50 [15]: 5.4 µM |
| C/C(=N\NC(=O)c1ccnnc1)c1ccccc1O |  | 97 to 107 | 10 to 44 | 22.8 | 3.6 | 54 - 57% | 7.6 | 17 to 61 | 6.4 | 3 | EC50 (H9c2 [17]): 55.3 µM |
| CC/C(=N\NC(=O)c1cnccn1)c1ccccc1O |  | 84 to 109 | 10 to 44 | > 100 | >4 | 50% | 27.3 | 17 to 61 | 27 | >4 |  |
| C/C(=N\NC(=O)c1cccc2ccccc12)c1ccccc1O | 95 | 79 |  | > 200 | >52 | 54 - 57% | 3.8 | 17 to 61 | 3.9 | >52 |  |
| C/C(=N\NC(=O)c1cnccn1)c1ccccc1O |  | 97 to 107 | 10 to 44 | 41.2 | 1.9 | 42% | 22.4 | 17 to 61 | 22.3 | 1.8 |  |
| CC/C(=N\NC(=O)c1ccnnc1)c1ccccc1O | 85 | 84 to 109 | 10 to 44 | > 200 | >21 | 50 - 56% | 14.9 | 17 to 61 | 9.1 | >13 | Activity [18]: Active; Ratio IC50/EC50 (H9c2 [19]): 8; EC50 (H9c2 [17]): 25 µM |
| O=C(N/N=C/c1ccccc1O)c1ccncc1 [SALINAZID] |  |  | 7 | 28.9 | 5.1 | 58% | 12.4 | 15 | 5.7 | 2.3 | EC50 (H9c2 [3]): 18.2 µM |
